Consider four compounds from patent EP4785945A1, “THERAPEUTIC AGENT FOR RHEUMATOID ARTHRITIS” (Teijin Pharma Limited, priority 2023, dated 2025).

The conditions of data set [1]: package insert; cited from earlier work.
For data set [2], the system named is rheumatoid arthritis patients. The experiment in a line: Clinical trial on rheumatoid arthritis patients: efficacy (ACR20, DAS28-CRP, VAS scale pain score, TJC). It counts as in vivo, humans. The procedure:
(§1) Compound 1 was orally administered at dosages of 10, 25, 75, or 175 mg once daily for seven days (double-blind study) to 32 rheumatoid arthritis patients (six patients for each dosage of Compound 1 administration, and two patients for each dosage of placebo administration).
(§2) Endpoints included: items related to disease activity and pain (DAS28-CRP, ACR20, VAS scale pain score, and TJC) to represent efficacy; vital signs (blood pressure, pulse, body temperature, and respiratory rate), physical findings, electrocardiograms, hematological tests, blood biochemistry tests, and the severity and frequency of adverse events to represent safety; and changes in the plasma concentration of Compound 1 to represent pharmacokinetics (PK).
DAS28-CRP was used to determine whether there was improvement or no improvement based on the differences between the values on Day 1 and Day 7 of administration, in accordance with the criteria shown in Table 1 (EULAR criteria).
ACR20 was used to determine whether there was an improvement based on the ACR20 on Day 1 and Day 7 of administration.
The percentage change in the VAS scale pain score is the percentage change in the score on Day 7 compared to the score on Day 1.
The percentage change in the TJC score is the percentage change in the value on Day 7 compared to the value on Day 1.

Data set [3] has as its system rheumatoid arthritis patients. The experiment in a line: Clinical trial on rheumatoid arthritis patients: safety. The format is in vivo, humans. The method, then: as §1, §2
Data set [4] can be described thus: Clinical trial on rheumatoid arthritis patients: pharmacokinetics (plasma concentration). The format is in vivo, humans. Particulars: human, Day 7 after administration. The procedure:
as §1, §2

Another data set has as its system synovial cells. The experiment in a line: Proliferation of synovial cells stimulated with TNF-α and IL-1β. The conditions noted are these: Synovial cell, relative to baseline after TNF-α and IL-1β stimulation without Compound 1, read-out: suppression of proliferation of synovial cells. The format is cell-based. The method, then: (§3) The synovial cells used in the test were derived from rheumatoid arthritis patients. The synovial cells were stimulated with tumor necrosis factor-α (TNF-α) and interleukin-1β (IL-1β) at the time of the test, and the effect of Compound 1 was measured. […] Furthermore, with regard to matrix metalloproteinase-3 (MMP-3), which is a mediator involved in tissue destruction, relative to a baseline after TNF-α and IL-1β stimulation without any added Compound 1, Compound 1 suppressed secretion in a dosage-dependent manner, by 14% when 10 nM was added, 21% when 30 nM was added, 37% when 100 nM was added, 60% when 300 nM was added, and 63% when 1000 nM was added.

Data set [5] relates to granulocyte macrophage colony-stimulating factor (GM-CSF). The experiment in a line: GM-CSF secretion by synovial cells stimulated with TNF-α and IL-1β. Particulars: relative to baseline after TNF-α and IL-1β stimulation without Compound 1, read-out: suppression of GM-CSF secretion. The format is cell-based. The method, then:
as §3

Data set [6] relates to matrix metalloproteinase-3 (MMP-3). The data set is described as follows: MMP-3 secretion by synovial cells stimulated with TNF-α and IL-1β. The format is cell-based. Particulars: Synovial cell, relative to baseline after TNF-α and IL-1β stimulation without Compound 1, read-out: suppression of MMP-3 secretion. The procedure: as §3
The subject of data set [7] is synovial cells and bone marrow cells. It counts as in vitro ADME. The procedure: Cultured synovial cells and bone marrow cells were used. Compound 1 was added, and the intracellular concentration in the synovial cells and bone marrow cells and the concentration in the culture medium were measured.
Data set [8] deals with rat adjuvant-induced arthritis (AIA) model. The experiment in a line: Combination study with methotrexate, Arthritis Score. The format is in vivo. The method, then: The effect of combining Compound 1 with methotrexate was measured using a rat adjuvant-induced arthritis (AIA) model. The effect was evaluated using the Arthritis Score. […] Compared to the control, the scores decreased by 33% when only Compound 1 was used, by 59% when only methotrexate was used, and by 86% when Compound 1 and methotrexate were used in combination. On the other hand, in this study, there was no decrease in the number of bone marrow cells even when Compound 1 and methotrexate were used in combination.

Data set [9] concerns mouse anti-collagen antibody-induced arthritis (CAIA) model. The data set is described as follows: Combination study with etanercept, Arthritis Score. It counts as in vivo. The conditions noted are these: Compound 1 alone, 50 mg/kg/day. The procedure: The effect of combining Compound 1 with etanercept was measured using a mouse anti-collagen antibody-induced arthritis (CAIA) model. The effect was evaluated using the Arthritis Score. […] Compared to the control, the scores decreased by 64% when only Compound 1 was used, by 62% when only etanercept was used, and by 97% when Compound 1 and etanercept were used in combination.

A further data set relates to rat AIA model. The data set is described as follows: Combination study with tofacitinib, Arthritis Score. Particulars: 30 mg/kg/day. It counts as in vivo. The procedure:
The effect of combining compound 1 with tofacitinib was measured using a rat AIA model. The effect was evaluated using the Arthritis Score.

The mark [10] stands for this setting: 25 mg, 75 mg, and 175 mg administration groups, Day 7 compared to Day 1.
Setting [11] is: 75 mg administration group, Day 7 compared to Day 1.
Where [12] appears, read: Day 1 to Day 7 of administration and three-day follow-up (up to Day 10).
Where [13] appears, read: all administration groups (10 to 175 mg).

As to `CCN1CCN(Cc2ccc(Nc3ncc(F)c(-c4cc(F)c5nc(C)n(C(C)C)c5c4)n3)nc2)CC1` [abemaciclib], the “incidence of the side effect of neutropenia” value in data set [1] is reported as 42.2%.

For the compound `CC(C)Nc1nc([C@@H](C)O)cc2cnc(Nc3ccc(N4CCNCC4=O)cn3)nc12` [Compound 1, (R)-1-(6-((6-(1-hydroxyethyl)-8-(isopropylamino)pyrido[3,4-d]pyrimidin-2-yl)amino)pyridin-3-yl)piperazin-2-one], the “percentages of subjects who showed improvement in ACR20, compared with placebo group” value in [2] (25 mg, 75 mg, and 175 mg administration groups, once daily oral, seven days) is “higher than in the placebo group”. Also, the “percentages of subjects who showed improvement in DAS28-CRP, compared with placebo group” value in data set [2] (25 mg, 75 mg, and 175 mg administration groups, once daily oral, seven days, EULAR criteria) is “higher than in the placebo group”. The “decreases in the TJC scores, compared with placebo group” value in [2] (setting [10]) was “higher than in the placebo group”. Besides, the “decreases in the VAS scale pain scores, compared with placebo group” value in [2] (setting [10]) was “higher than in the placebo group”. In addition, in [2] (75 mg administration group, once daily oral, seven days), the “percentage of subjects who showed improvement in ACR20” value is 60%. For the same compound, the “percentage of subjects who showed improvement in DAS28-CRP” value in data set [2] (75 mg administration group, once daily oral, seven days, EULAR criteria) stood at 80%. In addition, the “percentage change in the TJC score” value in data set [2] (setting [11]) is recorded as -40%. In [2] (setting [11]), the “percentage change in the VAS scale pain score” value is recorded as -40%. Also, the “adverse events, cases (events)” value in data set [3] (10 mg administration group) is listed as “two cases (five events)”; in data set [3] (25 mg administration group), “two cases (three events)”; in data set [3] (75 mg administration group), “two cases (three events)”; in [3] (175 mg administration group), “one case (one event)”. In addition, the “neutropenia or decrease in neutrophil count” value in [3] (setting [12]) is given as “no neutropenia or decrease in neutrophil count”. Besides, the neutrophil count entry in [3] (setting [12]) is listed as “maintained a constant neutrophil count”. In addition, the severe adverse events result in [3] (setting [13]) is “no severe adverse events”. Moreover, in [3] (setting [13]), the “severity of adverse events” value is “mild to moderate”. Also, the “changes in vital signs, electrocardiograms, physical findings, hematological tests, or blood biochemistry tests” value in data set [3] (any dosage (10, 25, 75, 175 mg once daily, seven days)) was “No significant changes”. Further, the half-life (in general, how long it takes for the measured level to halve) at 168 h is 12.9 h in data set [4] (10 mg once daily oral), 11.9 h in [4] (25 mg once daily oral), 14.6 h in data set [4] (75 mg once daily oral) and 10.4 h in data set [4] (175 mg once daily oral). Moreover, the inhibition at 0.01 µM in the data set on synovial cells (10 nM) came out at 5%; in data set [6] (10 nM) it was 14%. In addition, the inhibition at 0.03 µM in the data set on synovial cells (30 nM) came to 14%; in data set [6] (30 nM) it was 21%. Further, the inhibition at 0.1 µM was 19% with synovial cells (100 nM) and 37% in [6] (100 nM). In addition, the inhibition at 0.3 µM in the data set with synovial cells (300 nM) was found to be 27%; in [6] (300 nM), 60%. Also, the inhibition at 1 µM with synovial cells (1000 nM) amounted to 35%; in data set [5] (1000 nM), 65%; in data set [6] (1000 nM) it was 63%. Besides, the inhibition at 0.008 µM in data set [5] (8 nM) was determined as 17%. Further, the inhibition at 0.04 µM in [5] (40 nM) was 25%. The inhibition at 0.2 µM in data set [5] (200 nM) came to 48%. Moreover, in data set [7], the “distribution ratio between synovial cells and bone marrow cells” value is recorded as 84:16. Further, the “decrease of Arthritis Score compared to the control” value (shortened to “decrease of Arthritis Score”) in data set [8] (Compound 1 alone, 30 mg/kg/day) turned out to be 33%; in data set [9] it was 64%; in the data set on rat AIA model (Compound 1 alone), 40%.

With `C[C@@H]1CCN(C(=O)CC#N)C[C@@H]1N(C)c1ncnc2[nH]ccc12` [tofacitinib, reference compound], the “decrease of Arthritis Score” value in the data set on rat AIA model (tofacitinib alone) turned out to be 67%.

Take `CN(Cc1cnc2nc(N)nc(N)c2n1)c1ccc(C(=O)N[C@@H](CCC(=O)O)C(=O)O)cc1` [methotrexate, reference compound]: in [8] (methotrexate alone, 0.075 mg/kg/day), the “decrease of Arthritis Score” value was determined as 59%.
